Assay results taken from US12139492B2 (Endotarget Inc., priority 2021, dated 2024).
Where two headings read alike, the source gives them in different places.

Key:
[1] = target: BTK (Homo sapiens, UniProt Q06187); assay: Degradation of BTK protein in Namalwa cells (Western blot; DC50, Dmax); conditions: for DC50: cell line not given
[2] = system: JeKo-1 cells; assay: Antiproliferative effect, MTS cell viability assay, JeKo-1 cells; format: cell-based; conditions: Homo sapiens; JeKo-1 mantle cell lymphoma cells; read-out: IC50 (anti-proliferation) JeKO-1 cells
Method in brief: (§1)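 Cells were exposed to compound at 0, 0.001, 0.01, 0.1, 1 and 10 μM for 72 h. Viability was then measured by MTS assay, reading formazan produced by metabolically active cells as absorbance at 490 nm.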

[3] = system: Mino cells; assay: Antiproliferative effect, MTS cell viability assay, Mino cells; format: cell-based; conditions: Homo sapiens, MINO, Mino mantle cell lymphoma cells; read-out: IC50 (anti-proliferation) Mino cells
Method in brief: as §1

[4] = read-out: DC50 (BTK degradation), concentration giving 50% reduction of BTK expression level
[5] = read-out: Dmax (BTK degradation)

BTK, sequence (Q06187 whole entry): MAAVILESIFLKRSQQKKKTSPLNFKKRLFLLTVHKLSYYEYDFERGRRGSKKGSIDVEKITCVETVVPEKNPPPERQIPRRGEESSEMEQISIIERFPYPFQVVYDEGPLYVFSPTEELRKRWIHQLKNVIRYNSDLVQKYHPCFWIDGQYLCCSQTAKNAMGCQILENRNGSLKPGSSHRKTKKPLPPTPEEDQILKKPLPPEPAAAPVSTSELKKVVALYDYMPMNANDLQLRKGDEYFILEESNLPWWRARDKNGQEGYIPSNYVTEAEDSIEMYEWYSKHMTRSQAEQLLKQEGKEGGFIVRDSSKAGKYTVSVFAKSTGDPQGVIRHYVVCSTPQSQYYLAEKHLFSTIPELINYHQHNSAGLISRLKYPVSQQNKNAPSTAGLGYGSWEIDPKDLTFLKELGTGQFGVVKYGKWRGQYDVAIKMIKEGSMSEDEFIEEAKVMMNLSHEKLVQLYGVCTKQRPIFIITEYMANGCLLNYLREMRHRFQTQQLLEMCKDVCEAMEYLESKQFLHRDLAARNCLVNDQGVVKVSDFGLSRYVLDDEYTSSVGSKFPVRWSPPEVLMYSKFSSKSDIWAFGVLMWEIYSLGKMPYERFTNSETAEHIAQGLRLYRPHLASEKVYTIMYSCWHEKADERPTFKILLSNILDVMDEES

Row | Dmax [1] [%] | DC50 ([1]; BTK degradation) [nM] | degradation of BTK protein ([1]; Namalwa B lymphocyte cells, various concentrations, 24 hours, Western blot) | DC50 [1, 4] [nM] | Dmax [1, 5] [%] | Compound | IC50 [2] [nM] | IC50 [3] [nM]
1 | > 75 | > 50 | – | – | – | Nc1ncnc2c1c(-c1ccc(Oc3ccccc3)cc1)nn2C1CCN(C2CCN(C(=O)N3CCN(CCCC4CCN(c5ccc6c(c5)C(=O)N(C5CCC(=O)NC5=O)C6=O)CC4)CC3)CC2)CC1 (centres unmarked) [Compound 259, 5-(4-(3-(4-(4-(4-amino-3-(4-phenoxyphenyl)-1H-pyrazolo[3,4-d]pyrimidin-1-yl)-[1,4′-bipiperidine]-1′-carbonyl)piperazin-1-yl)propyl)piperidin-1-yl)-2-(2,6-dioxopiperidin-3-yl)isoindoline-1,3-dione] | 1000 to 10000 | > 10000
2 | – | – | dose-dependent degradation | 10 to 50 | > 90 | Nc1ncnc2c1c(-c1ccc(Oc3ccccc3)cc1)nn2C1CCN(CC2CCN(CC3CCN(c4ccc5c(c4)C(=O)N(C4CCC(=O)NC4=O)C5=O)C3)C2)CC1 (centres unmarked) [Compound 447, 5-(3-((3-((4-(4-amino-3-(4-phenoxyphenyl)-1H-pyrazolo(3,4-d)pyrimidin-1-yl)piperidin-1-yl)methyl)pyrrolidin-1-yl)methyl)pyrrolidin-1-yl)-2-(2,6-dioxopiperidin-3-yl)isoindoline-1,3-dione] | 1000 to 10000 | 1000 to 10000
3 | > 75 | > 50 | – | – | – | NC(=O)c1c(-c2ccc(Oc3ccccc3)cc2)nn2c1NCC[C@H]2C1CCN(CC2CCN(CCN3CCN(c4ccc5c(c4)CN(C4CCC(=O)NC4=O)C5=O)CC3)CC2)CC1 (stereo partly drawn) [Compound 332, (7S)-7-(1-((1-(2-(4-(2-(2,6-dioxopiperidin-3-yl)-1-oxoisoindolin-5-yl)piperazin-1-yl)ethyl)piperidin-4-yl)methyl)piperidin-4-yl)-2-(4-phenoxyphenyl)-4,5,6,7-tetrahydropyrazolo[1,5-a]pyrimidine-3-carboxamide] | 1000 to 10000 | 1000 to 10000
4 | – | – | – | < 10 | > 90 | Nc1ncnc2c1c(-c1ccc(Oc3ccccc3)cc1)nn2C1CCN(C(=O)NCCN2CCN(c3ccc4c(c3)CN(C3CCC(=O)NC3=O)C4=O)CC2)CC1 (centres unmarked) [Compound 521, 4-(4-amino-3-(4-phenoxyphenyl)-1H-pyrazolo[3,4-d]pyrimidin-1-yl)-N-(2-(4-(2-(2,6-dioxopiperidin-3-yl)-1-oxoisoindolin-5-yl)piperazin-1-yl)ethyl)piperidine-1-carboxamide] | < 1000 | < 1000
5 | > 90 | < 10 | – | – | – | NC(=O)c1c(-c2ccc(Oc3ccccc3)cc2)nn2c1NCC[C@H]2C1CCN(C2CCN(C(=O)N3CCC(N4CCN(c5ccc6c(c5)CN(C5CCC(=O)NC5=O)C6=O)CC4)CC3)CC2)CC1 (stereo partly drawn) [Compound 382, (7S)-7-(1′-(4-(4-(2-(2,6-dioxopiperidin-3-yl)-1-oxoisoindolin-5-yl)piperazin-1-yl)piperidine-1-carbonyl)-[1,4′-bipiperidin]-4-yl)-2-(4-phenoxyphenyl)-4,5,6,7-tetrahydropyrazolo[1,5-a]pyrimidine-3-carboxamide] | < 1000 | < 1000
6 | – | – | – | < 10 | > 90 | Nc1ncnc2c1c(-c1ccc(Oc3ccccc3)cc1)nn2[C@@H]1CCCN(C2CCN(C(=O)N3CC(N4CCN(c5ccc6c(c5)C(=O)N(C5CCC(=O)NC5=O)C6=O)CC4)C3)CC2)C1 (stereo partly drawn) [Compound 475, 5-(4-(1-((R)-3-(4-amino-3-(4-phenoxyphenyl)-1H-pyrazolo[3,4-d]pyrimidin-1-yl)-[1,4′-bipiperidine]-1′-carbonyl)azetidin-3-yl)piperazin-1-yl)-2-(2,6-dioxopiperidin-3-yl)isoindoline-1,3-dione] | 1000 to 10000 | < 1000
7 | > 90 | 10 to 50 | – | – | – | NC(=O)c1c(-c2ccc(Oc3ccccc3)cc2)nn2c1NCCC2C1CCN(CCOCCOCCN2CCN(c3ccc4c(c3)CN(C3CCC(=O)NC3=O)C4=O)CC2)CC1 (centres unmarked) [Compound 270, 7-(1-(2-(2-(2-(4-(2-(2,6-dioxopiperidin-3-yl)-1-oxoisoindolin-5-yl)piperazin-1-yl)ethoxy)ethoxy)ethyl)piperidin-4-yl)-2-(4-phenoxyphenyl)-4,5,6,7-tetrahydropyrazolo[1,5-a]pyrimidine-3-carboxamide] | > 10000 | 1000 to 10000
8 | – | – | – | 10 to 50 | > 90 | Nc1ncnc2c1c(-c1ccc(Oc3ccccc3)cc1)nn2C1CCN(C2CCN(CC3CN(c4ccc5c(c4)CN(C4CCC(=O)NC4=O)C5=O)C3)C2)CC1 (centres unmarked) [Compound 426, 3-(5-(3-((3-(4-(4-amino-3-(4-phenoxyphenyl)-1H-pyrazolo[3,4-d]pyrimidin-1-yl)piperidin-1-yl)pyrrolidin-1-yl)methyl)azetidin-1-yl)-1-oxoisoindolin-2-yl)piperidine-2,6-dione] | < 1000 | < 1000
9 | – | – | – | < 10 | > 90 | Nc1ncnc2c1c(-c1ccc(Oc3ccccc3)cc1)nn2C1CCN(CC2CCN(CC3CCN(c4ccc(N5CCC(=O)NC5=O)cc4)CC3)C2)CC1 (centres unmarked) [Compound 547, 1-(4-(4-((3-((4-(4-amino-3-(4-phenoxyphenyl)-1H-pyrazolo[3,4-d]pyrimidin-1-yl)piperidin-1-yl)methyl)pyrrolidin-1-yl)methyl)piperidin-1-yl)phenyl)dihydropyrimidine-2,4(1H,3H)-dione] | 1000 to 10000 | 1000 to 10000
10 | – | – | – | < 10 | > 90 | Nc1ncnc2c1c(-c1ccc(Oc3ccccc3)cc1)nn2C1CCN(C(=O)N2CC(N3CCN(c4ccc5c(c4)C(=O)N([C@@H]4CCC(=O)NC4=O)C5=O)CC3)C2)CC1 [Compound 485, (R)-5-(4-(1-(4-(4-amino-3-(4-phenoxyphenyl)-1H-pyrazolo[3,4-d]pyrimidin-1-yl)piperidine-1-carbonyl)azetidin-3-yl)piperazin-1-yl)-2-(2,6-dioxopiperidin-3-yl)isoindoline-1,3-dione] | < 1000 | < 1000
11 | > 90 | 10 to 50 | – | – | – | NC(=O)c1c(-c2ccc(Oc3ccccc3)cc2)nn2c1NCCC2C1CCN(CC2CCN(CC3CCN(c4ccc5c(c4)CN(C4CCC(=O)NC4=O)C5=O)CC3)CC2)CC1 (centres unmarked) [Compound 314, 7-(1-((1-((1-(2-(2,6-dioxopiperidin-3-yl)-1-oxoisoindolin-5-yl)piperidin-4-yl)methyl)piperidin-4-yl)methyl)piperidin-4-yl)-2-(4-phenoxyphenyl)-4,5,6,7-tetrahydropyrazolo[1,5-a]pyrimidine-3-carboxamide] | 1000 to 10000 | 1000 to 10000
12 | – | – | – | < 10 | > 90 | Nc1ncnc2c1c(-c1ccc(Oc3ccccc3)cc1)nn2[C@@H]1CCCN(C(=O)CCCN2CCN(c3ccc4c(c3)C(=O)N(C3CCC(=O)NC3=O)C4=O)CC2)C1 (stereo partly drawn) [Compound 525, 5-(4-(4-((R)-3-(4-amino-3-(4-phenoxyphenyl)-1H-pyrazolo[3,4-d]pyrimidin-1-yl)piperidin-1-yl)-4-oxobutyl)piperazin-1-yl)-2-(2,6-dioxopiperidin-3-yl)isoindoline-1,3-dione] | < 1000 | 1000 to 10000
13 | – | – | – | 10 to 50 | > 90 | Nc1ncnc2c1c(-c1ccc(Oc3ccccc3)cc1)nn2C1CCN(CC2CCN(CCCN3CCN(c4ccc(N5CCC(=O)NC5=O)cc4)CC3)CC2)CC1 [Compound 582, 1-(4-(4-(3-(4-((4-(4-amino-3-(4-phenoxyphenyl)-1H-pyrazolo[3,4-d]pyrimidin-1-yl)piperidin-1-yl)methyl)piperidin-1-yl)propyl)piperazin-1-yl)phenyl)dihydropyrimidine-2,4(1H,3H)-dione] | 1000 to 10000 | < 1000
